Assay results taken from patent US4479951A, “1.4;3.6-Dianhydrohexitol nitrates substituted by purine bases, processes for their preparation and pharmaceutical compositions” (Dr. Willmar Schwabe GmbH & Co., priority 1980, dated 1984).

Key:
[1] = acute toxicity, intravenous; type: in vivo; conditions: mouse, in vivo, iv; within 24 hours; read-out: Evaluated LD50-range
[2] = tested on: female NMRI-albino mice; test: acute toxicity, intravenous; type: in vivo; conditions: within 24 hours
[3] = tested on: isolated rat aorta preparations; test: spasmolytic effectiveness, noradrenaline-induced contractions; conditions: read-out: ED50 noradrenaline spasm
[4] = tested on: guinea pigs; test: blood pressure-lowering effectiveness on narcotised guinea pigs, intravenous; type: in vivo, guinea pig; conditions: for blood pressure previously: before administration
[5] = tested on: isolated rat aorta preparations; test: spasmolytic effectiveness, potassium chloride-induced contractions; conditions: read-out: ED50 potassium chloride spasm

Structure (SMILES) | LD50 at 24 h [1] [mg/kg] | Frequency of death ([2]; 50 mg/kg i.v.) | Frequency of death ([2]; 100 mg/kg i.v.) | Frequency of death ([2]; 200 mg/kg i.v.) | IC50 [3] [nM] | blood pressure afterwards ([4]; 0.25 mg/kg i.v.) [mm. Hg] | blood pressure Δ ([4]; 0.25 mg/kg i.v.) [mm. Hg] | blood pressure previously ([4]; 0.25 mg/kg i.v.) [mm. Hg] | blood pressure afterwards ([4]; 1.00 mg/kg i.v.) [mm. Hg] | blood pressure Δ ([4]; 1.00 mg/kg i.v.) [mm. Hg] | blood pressure previously ([4]; 1.00 mg/kg i.v.) [mm. Hg] | blood pressure afterwards ([4]; 2.50 mg/kg i.v.) [mm. Hg] | blood pressure Δ ([4]; 2.50 mg/kg i.v.) [mm. Hg] | blood pressure previously ([4]; 2.50 mg/kg i.v.) [mm. Hg] | IC50 [5] [nM]
O=[N+]([O-])O[C@H]1CO[C@H]2[C@@H]1OC[C@@H]2n1cnc2c(N3CCCC3)ncnc21 [Example 6b, 5-(6-Pyrrolidinopurin-9-yl)-5-desoxy-1.4;3.6-dianhydro-L-iditol 2-nitrate] | 50 to 100 | 0/3 | 3/3 | 3/3 | 540 | 51.50 ± 4.94 | -13.50 | 65.00 ± 4.02 | 44.75 ± 2.84 | -20.75 | 65.50 ± 2.36 | 37.25 ± 1.11 | -24.75 | 62.00 ± 2.04 | 4070
O=[N+]([O-])O[C@H]1CO[C@H]2[C@@H]1OC[C@@H]2n1cnc2c(N3CCOCC3)ncnc21 [Example 8b, 5-(6-Morpholinopurin-9-yl)-5-desoxy-1.4;3.6-dianhydro-L-iditol 2-nitrate] | – | – | – | – | 290 | – | – | – | – | – | – | – | – | – | 3000
CNc1ncnc2c1ncn2[C@H]1CO[C@H]2[C@@H]1OC[C@@H]2O[N+](=O)[O-] [Example 3c, 5-(6-Methylaminopurin-9-yl)-5-desoxy-1.4;3.6-dianhydro-L-iditol 2-nitrate] | 100 to 200 | – | 0/6 | 3/3 | 480 | 79.25 ± 2.56 | -0.25 | 79.50 ± 2.50 | 71.50 ± 3.97 | -8.00 | 79.50 ± 2.66 | 61.50 ± 3.23 | -15.50 | 77.00 ± 2.80 | 4600
CCNc1ncnc2c1ncn2[C@H]1CO[C@H]2[C@@H]1OC[C@@H]2O[N+](=O)[O-] [Example 5b, 5-(6-Ethylaminopurin-9-yl)-5-desoxy-1.4;3.6-dianhydro-L-iditol 2-nitrate] | 50 to 100 | 1/11 | 3/6 | 3/3 | 380 | 71.00 ± 5.04 | -5.50 | 76.50 ± 2.66 | 65.75 ± 3.75 | -12.75 | 78.50 ± 1.70 | 51.00 ± 3.13 | -25.25 | 76.25 ± 2.59 | 13000
O=[N+]([O-])O[C@@H]1CO[C@H]2[C@@H]1OC[C@@H]2O [ISMN, 1.4;3.6-dianhydro-D-glucitol 2-nitrate, reference compound] | – | – | – | – | – | 53.90 ± 3.10 | – | 57.60 ± 3.10 | 48.40 ± 3.20 | – | 54.70 ± 3.80 | 41.40 ± 3.90 | – | 52.30 ± 4.80 | –
CN(C)c1ncnc2c1ncn2[C@H]1CO[C@H]2[C@@H]1OC[C@@H]2O[N+](=O)[O-] [Example 4b, 5-(6-Dimethylaminopurin-9yl)-5-desoxy-1.4;3.6-dianhydro-L-iditol 2-nitrate] | 50 to 100 | 0/3 | 3/3 | 3/3 | 220 | 63.25 ± 4.23 | -10.50 | 73.75 ± 2.14 | 59.00 ± 1.47 | -15.00 | 74.00 ± 1.91 | 43.50 ± 2.50 | -28.50 | 72.00 ± 2.45 | 29000
Cn1c(=O)c2c(ncn2[C@H]2CO[C@H]3[C@@H]2OC[C@@H]3O[N+](=O)[O-])n(C)c1=O [Example 12b, 5-(7-Theophyllinyl)-5-desoxy-1.4;3.6-dianhydro-L-iditol 2-nitrate] | – | – | – | – | 3200 | – | – | – | – | – | – | – | – | – | 4200
O=[N+]([O-])O[C@H]1CO[C@H]2[C@@H]1OC[C@@H]2n1cnc2c(N3CCCCC3)ncnc21 [Example 7b, 5-(6-Piperidinopurin-9-yl)-5-desoxy-1.4;3.6-dianhydro-L-iditol 2-nitrate] | – | – | – | – | 240 | – | – | – | – | – | – | – | – | – | 2900
CN1CCN(c2ncnc3c2ncn3[C@H]2CO[C@H]3[C@@H]2OC[C@@H]3O[N+](=O)[O-])CC1 [Example 9b, 5-[6-(4-Methylpiperazino)-purin-9-yl]-5-desoxy-1.4;3.6-dianhydro-L-iditol 2-nitrate] | 50 to 100 | – | 4/6 | 3/3 | 2650 | 70.25 ± 8.39 | -2.25 | 72.50 ± 6.20 | 69.75 ± 7.44 | -3.50 | 73.25 ± 6.24 | 59.75 ± 4.82 | -12.75 | 72.50 ± 5.24 | 25000
CC(C)(C)C(=O)Nc1ncnc2c1ncn2[C@H]1CO[C@H]2[C@@H]1OC[C@@H]2O[N+](=O)[O-] [Example 10, 5-[9-(6-N-Pivaloyl)-adenyl]-5-desoxy-1.4;3.6-dianhydro-L-iditol 2-nitrate] | – | – | – | – | 302 | – | – | – | – | – | – | – | – | – | 6500
O=[N+]([O-])O[C@H]1CO[C@H]2[C@@H]1OC[C@@H]2n1cnc2c(NCc3ccccc3)ncnc21 [Example 13b, 5-(6-Benzylaminopurin-9-yl)-5-desoxy-1.4;3.6-dianhydro-L-iditol 2-nitrate] | – | – | – | – | 16.8 | – | – | – | – | – | – | – | – | – | 2400
